The results in this text go back to article PMC13195121, “A plasmid toolbox for the easy autodisplay of recombinant proteins and its optimization” (Communications Biology, 2026).

Assay [1] addresses T1, β-Gluc (β-glucosidase BglA LYTH) (Caldicellulosiruptor saccharolyticus, UniProt P10482).
T1 construct: His6 tag and fXa site
As to the kind of experiment: whole-cell absorbance assay at […] nm, surface-displaying E. coli. Particulars: 5 mM pNPG; 0.1 M Na-citrate pH 6; 55 °C. In kind it is cell-based.

Assay [2] has as its target T2, laccase CotA (Heyndrickxia coagulans, UniProt A0AAN0WB15).
T2 construct: gene SB48_HM08orf01352; N-terminal His6 tag and fXa site; codon-optimized gene
T2 sequence (A0AAN0WB15 1-522): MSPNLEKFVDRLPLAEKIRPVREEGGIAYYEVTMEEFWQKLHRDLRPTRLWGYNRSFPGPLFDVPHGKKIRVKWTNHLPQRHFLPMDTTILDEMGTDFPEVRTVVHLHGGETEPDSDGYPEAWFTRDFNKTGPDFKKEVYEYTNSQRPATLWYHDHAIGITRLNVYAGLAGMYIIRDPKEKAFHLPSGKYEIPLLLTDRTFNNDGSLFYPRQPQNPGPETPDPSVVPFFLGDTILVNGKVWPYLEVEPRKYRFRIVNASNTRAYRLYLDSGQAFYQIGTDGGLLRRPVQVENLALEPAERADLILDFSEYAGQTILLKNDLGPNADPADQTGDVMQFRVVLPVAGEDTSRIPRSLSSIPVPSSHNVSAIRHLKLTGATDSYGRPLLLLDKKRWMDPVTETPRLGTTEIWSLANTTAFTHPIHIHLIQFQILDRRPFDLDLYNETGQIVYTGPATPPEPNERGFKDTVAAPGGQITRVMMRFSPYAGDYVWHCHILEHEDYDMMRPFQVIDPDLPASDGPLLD
Description: whole-cell absorbance assay at […] nm, surface-displaying P. putida. In kind it is cell-based. Particulars: 0.1 M Na-acetate pH 5.6; 30 °C; cells grown with CuCl2.

The structures appear in SMILES notation. Where a name gives a salt, the structure may show the parent alone.

T1 sequence (P10482 whole entry): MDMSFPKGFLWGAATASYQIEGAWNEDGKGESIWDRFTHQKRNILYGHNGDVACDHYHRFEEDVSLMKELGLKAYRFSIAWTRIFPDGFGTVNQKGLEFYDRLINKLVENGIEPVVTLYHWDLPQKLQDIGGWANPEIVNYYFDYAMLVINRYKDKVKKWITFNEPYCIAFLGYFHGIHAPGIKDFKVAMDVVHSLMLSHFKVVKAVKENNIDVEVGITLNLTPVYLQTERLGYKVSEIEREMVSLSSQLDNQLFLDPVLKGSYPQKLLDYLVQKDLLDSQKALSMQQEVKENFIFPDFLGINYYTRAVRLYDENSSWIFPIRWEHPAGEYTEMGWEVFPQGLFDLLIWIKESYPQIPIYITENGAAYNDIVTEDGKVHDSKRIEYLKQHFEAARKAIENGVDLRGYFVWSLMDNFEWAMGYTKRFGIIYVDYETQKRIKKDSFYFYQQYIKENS

For `O=[N+]([O-])c1ccc(O[C@@H]2O[C@H](CO)[C@@H](O)[C@H](O)[C@H]2O)cc1` [4-nitrophenyl-β-D-glucopyranoside], the “whole-cell absorbance assay at 405 nm, surface-displaying E. coli” value in assay [1] was “activity assay with 4-nitrophenyl-β-D-glucopyranoside (pNPG) as substrate”.

As for `CCn1c(=NN=c2sc3cc(S(=O)(=O)O)ccc3n2CC)sc2cc(S(=O)(=O)O)ccc21` [ABTS, 2,2’-Azino-bis [3-ethylbenzothiazoline-6-sulfonic acid]-diammonium salt], the “whole-cell absorbance assay at 420 nm, surface-displaying P. putida” value in assay [2] is on record as “The substrate ABTS is converted by the laccase to ABTS^•+”.
